Here are results for 4 compounds from patent US20110065734A1, “NOVEL BIFUNCTIONAL COMPOUNDS WHICH INHIBIT PROTEIN KINASES AND HISTONE DEACETYLASES” (4SC AG, priority 2007, published 2011).

In test [1] the test system is HDACs 4 to 8. The following applies: read-out: HDACs 4 to 8 IC50; Kalita et al. 2005; cited from earlier work.
The target of test [2] is T1, HDAC11 (Homo sapiens, UniProt Q96DB2).
T1 sequence (Q96DB2 1-347): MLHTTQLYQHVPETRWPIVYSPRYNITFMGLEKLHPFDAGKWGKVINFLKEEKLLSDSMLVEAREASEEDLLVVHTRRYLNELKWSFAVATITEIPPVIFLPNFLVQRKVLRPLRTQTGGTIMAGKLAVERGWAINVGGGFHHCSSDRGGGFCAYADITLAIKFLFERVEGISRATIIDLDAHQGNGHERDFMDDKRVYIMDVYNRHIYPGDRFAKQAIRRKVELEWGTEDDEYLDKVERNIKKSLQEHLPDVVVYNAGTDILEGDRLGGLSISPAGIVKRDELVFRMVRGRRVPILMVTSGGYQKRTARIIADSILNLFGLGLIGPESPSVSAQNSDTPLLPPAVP
The note with it: Kalita et al. 2005; one range for HDAC1, 2, 3 and 11; cited from earlier work.

Test [3] has as its system A549 NSCLC cell line. Description: Cellular cytotoxicity assay (Alamar Blue), A549. Type of test: cell-based. The following applies: Homo sapiens, A549; 72 h; only a range over the listed compounds is given; read-out: Cytotoxicity towards A549 NSCLC cell line IC50.
Test [4] concerns histone H3 hyperacetylation in HeLa cervical carcinoma cells. Description: Cellular histone H3 hyperacetylation assay. Type of test: cell-based. The note with it: Homo sapiens, 24 h, only a range over the listed compounds is given, read-out: Induction of histone H3 hyperacetylation in HeLa cervical carcinoma cells EC50.
Test [5] relates to Cal27 head and neck cancer cell line. Description: Cellular cytotoxicity assay (Alamar Blue), Cal27. In kind it is cell-based. The following applies: Homo sapiens, CAL-27; 72 h; only a range over the listed compounds is given; read-out: Cytotoxicity towards Cal27 cell line IC50. The method, then: (§1) The anti-proliferative activity of the chimeric HDAC and protein kinase inhibitory chimeric compounds of the present invention was evaluated using HeLa cervical carcinoma, A549 NSCLC, SKOV3 ovarian carcinoma, Cal27 head and neck cancer, K562 chronic myeloid leukemia (CML) and EOL1 acute hypereosinophilic myeloid leukemia, cell lines. For quantification of cellular proliferation/living cells the Alamar Blue (Resazurin) cell viability assay was applied (O'Brien et al. Eur Biochem. 267, 5421-5426, 2000). In this assay Resazurin is reduced to the fluorescent resorufin by cellular dehydrogenase activity, correlating with viable, proliferating cells. The examples were dissolved as 20 mM solutions in dimethylsulfoxide (DMSO) and subsequently diluted in semi-logarithmic steps. Cell lines were seeded at respective density into 96 well flat bottom plates in a volume of 200 μl per well. 24 h after seeding 1 μl each of the compound dilutions were added into each well of the 96 well plate. Each compound dilution was tested as quadruplicates. Wells containing untreated control cells were filled with […] DMEM medium containing 0.5% v:v DMSO. The cells were then incubated with the substances for 72 h at 37° C. in a humidified atmosphere containing 5% carbon dioxide. To determine the viability of the cells, 20 μl of an Resazurin solution (Sigma; 90 mg/l) were added. After 4 h incubation at 37° C. the fluorescence was measured at an extinction of 544 nm and an emission of 590 nm. For the calculation of the cell viability the emission value from untreated cells was set as 100% viability and the emission rates of treated cells were set in relation to the values of untreated cells. Viabilities were expressed as % values. The corresponding IC50 values of the compounds for cytotoxic activity are determined from the concentration-effect curves by means of non-linear regression.

For test [6], the system named is HeLa cervical carcinoma cell line. Description: Cellular cytotoxicity assay (Alamar Blue), HeLa. Type of test: cell-based. The following applies: Homo sapiens, 72 h. (In general: Resazurin is reduced to fluorescent resorufin, in cell work by metabolically active cells.)
Test [7] deals with SKOV3 ovarian carcinoma cell line. Description: Cellular cytotoxicity assay (Alamar Blue), SKOV3. In kind it is cell-based. The note with it: Homo sapiens, SK-OV-3; 72 h; only a range over the listed compounds is given; read-out: Cytotoxicity towards SKOV3 cell line IC50. The procedure: as §1
Test [8] has as its target T2, recombinant HDAC1 isolated from HEK293 cells with heterologous HDAC1 expression (Homo sapiens, UniProt Q13547).
T2 construct: made in house
Description: Fluorimetric rHDAC1 activity assay. In kind it is biochemical. The note with it: only a range of IC50 over the compounds given; read-out: rHDAC1 inhibitory activity IC50.

Test [9] relates to cellular HDAC activity in HeLa cells. Description: Quantification of cellular HDAC activity in HeLa cells. In kind it is cell-based, human. The note with it: 4 h compound incubation; for lists of compounds only a range is printed; read-out: Inhibition of cellular HDAC activity in HeLa cells IC50. The method, then: To assess the cellular potency of histone deacetylase inhibitors, an assay recently described was applied (Ciossek et al. Anal Biochem e-pub 2007). 5×10^3 HeLa cervical carcinoma cells/well (ATCC CCL-2) were cultivated in 200 μl/well DMEM (containing 10% FCS) in cell culture microliter plates (white, 96 well flat bottom plates suitable for fluorimetric analysis; Costar Art. No. 3917). Cells were cultivated for 24 h under standard cell culture conditions at 37° C. and 5% CO2 to allow cell attachment and proliferation. The compounds of the present invention were added at different concentrations (dilutions done in DMSO) and incubation continued for 4 h at 37° C. under cell culture conditions (each concentration was tested in quadruplicate). […] After discarding the culture medium, 100 μl/well substrate solution (200 μM Boc-K(Ac)-AMC in DMEM (containing 10% FCS), stock solution diluted 1:250) were added and incubation continued at 37° C. under cell culture conditions for further 3 h. […] After incubation for 5 min at 37° C., cells were lysed by addition of 100 μl/well lysis buffer (50 mM TRIS pH 8, 137 mM NaCl, 2.7 mM KCl, 1 mM MgCl2, 1 vol % NP-40) and further incubation for 20 min at 37° C. Finally, the amount of AMC was quantified using the Wallac Victor device (extinction λ=355 nm, emission at λ=460 inn).

Test [10] has as its target T3, HER2 (Homo sapiens, UniProt P04626).
T3 construct: HER2 c-terminal kinase domain; made in house
Description: Biochemical flash-plate based kinase assay, HER2. The note with it: only a range over the listed compounds is given; read-out: HER2 inhibition IC50. The text has this:
Active kinase proteins were either obtained from commercial suppliers (Abl, PDGF-Rβ ProQinase, Freiburg/Germany; AblT^315I: Millipore/Upstate, Billerica/USA; PKA: InvitroGen/Panvera, Carlsbad/USA) or prepared in-house (KDR, c-terminal kinase domain AA790-1356, HER2 c-terminal kinase domain, EGFR/HER1 C-terminal kinase domain). As substrates, poly-AGKY for Abl, AblT^315I and PDGF-Rβ (#P-1152 Sigma, Munich/Germany), poly-GluTyr for KDR, HER2 and EGFR/HER1 (#P-0275, Sigma, Munich/Germany) or a PKA substrate peptide for PKA (#12-394, Millipore/Upstate, Billerica/USA) were used. Into each well of a 96-well flashplate (#SMP-200 in the case of Abl, Abl T^315I, PDGF-Rβ, EGFR, HER2 and KDR, #SMP-103 in the case of PKA; Perkin Elmer, Waltham/USA) kinase protein was diluted into kinase assay buffer (50 mM HEPES pH 7.5, 3 mM MgCl2, 3 mM MnCl2, 1 mM DTT, 3 μM sodium orthovanadate, 5 μg/ml PEG 8000) containing the appropriate substrate (final volume 89 μl). DMSO vehicle or compounds are added as 1 μl/well prior to the initiation of the kinase reaction by 10 μl 1 mM [^33P]-γATP (4×10^5 cpm). […] Plates were washed three times with 0.9% w/v NaCl and quantitated by liquid scintillation counting.

Test [11] addresses T4, Protein kinase A (PKA) (Homo sapiens, UniProt P17612).
T4 construct: purchased InvitroGen/Panvera, Carlsbad/USA
Description: Biochemical flash-plate based kinase assay, PKA. The text has this: Active kinase proteins were either obtained from commercial suppliers (Abl, PDGF-Rβ ProQinase, Freiburg/Germany; AblT^315I: Millipore/Upstate, Billerica/USA; PKA: InvitroGen/Panvera, Carlsbad/USA) or prepared in-house (KDR, c-terminal kinase domain AA790-1356, HER2 c-terminal kinase domain, EGFR/HER1 C-terminal kinase domain). As substrates, poly-AGKY for Abl, AblT^315I and PDGF-Rβ (#P-1152 Sigma, Munich/Germany), poly-GluTyr for KDR, HER2 and EGFR/HER1 (#P-0275, Sigma, Munich/Germany) or a PKA substrate peptide for PKA (#12-394, Millipore/Upstate, Billerica/USA) were used. Into each well of a 96-well flashplate (#SMP-200 in the case of Abl, Abl T^315I, PDGF-Rβ, EGFR, HER2 and KDR, #SMP-103 in the case of PKA; Perkin Elmer, Waltham/USA) kinase protein was diluted into kinase assay buffer (50 mM HEPES pH 7.5, 3 mM MgCl2, 3 mM MnCl2, 1 mM DTT, 3 μM sodium orthovanadate, 5 μg/ml PEG 8000) containing the appropriate substrate (final volume 89 μl). DMSO vehicle or compounds are added as 1 μl/well prior to the initiation of the kinase reaction by 10 μl 1 mM [^33P]-γATP (4×10^5 cpm). Reactions were allowed to proceed for a time predetermined to be linear on a time versus phosphorylation plot (30 min for PKA, otherwise 80 min) and terminated with the addition of an equal volume of phosphoric acid (2% H3PO4 for 5 minutes). Plates were washed three times with 0.9% w/v NaCl and quantitated by liquid scintillation counting.

Counter-ions that a name gives are not always drawn. Like-named read-outs stand apart in the source and are kept apart here.

T2 sequence (Q13547 whole entry): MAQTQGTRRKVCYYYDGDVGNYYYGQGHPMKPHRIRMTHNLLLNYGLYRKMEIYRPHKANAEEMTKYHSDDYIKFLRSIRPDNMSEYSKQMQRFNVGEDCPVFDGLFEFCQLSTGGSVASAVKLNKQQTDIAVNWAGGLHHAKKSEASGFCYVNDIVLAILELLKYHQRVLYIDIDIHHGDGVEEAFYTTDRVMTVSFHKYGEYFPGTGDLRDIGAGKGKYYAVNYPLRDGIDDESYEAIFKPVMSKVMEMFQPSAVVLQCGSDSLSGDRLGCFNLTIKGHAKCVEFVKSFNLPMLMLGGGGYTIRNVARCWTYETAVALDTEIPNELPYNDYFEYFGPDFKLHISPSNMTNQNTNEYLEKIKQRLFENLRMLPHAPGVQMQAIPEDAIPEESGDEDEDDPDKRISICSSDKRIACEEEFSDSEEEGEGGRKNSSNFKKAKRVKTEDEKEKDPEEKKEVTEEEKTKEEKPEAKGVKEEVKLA
T3 sequence (P04626 720-987 limits assumed): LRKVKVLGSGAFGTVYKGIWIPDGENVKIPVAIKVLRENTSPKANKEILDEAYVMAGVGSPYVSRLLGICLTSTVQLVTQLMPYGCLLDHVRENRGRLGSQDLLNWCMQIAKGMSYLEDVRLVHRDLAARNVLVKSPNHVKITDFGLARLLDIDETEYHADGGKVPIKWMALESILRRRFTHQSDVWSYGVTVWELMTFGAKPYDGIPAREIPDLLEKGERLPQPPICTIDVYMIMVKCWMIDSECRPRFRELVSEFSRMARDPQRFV

Usually IC50 stands for the concentration that inhibits the measured activity by half. With `Nc1ccccc1NC(=O)c1ccc(CNc2nccc(-c3cccnc3)n2)cc1` [MGCD0103], the IC50 was greater than 20 µM in [1] and 0.1 to 2 µM in test [2].

The term EC50 denotes the concentration needed to bring the measured effect to its halfway point. With `O=C(/C=C/c1cccc(-c2ccc3ncnc(Nc4ccc(OCc5cccc(F)c5)c(Cl)c4)c3c2)c1)NO` [[9], E-3-(3-(4-(3-chloro-4-(3-fluorobenzyloxy)phenylamino)quinazolin-6-yl)phenyl)-N-hydroxy-acrylamide], the IC50 was no less than 1.1 µM in test [3]; no less than 0.28 µM in test [5]; 9.1e-07 to 9.4e-06 M in [6] (only a range over the listed compounds is given, read-out: Cytotoxicity towards HeLa cervical cell line IC50); no less than 1 µM in [7]; no less than 0.0353 µM in test [8]; 0.43 µM in test [9]. The EC50 in test [4] is no less than 3.65 µM.

As for `C#Cc1cccc(Nc2ncnc3cc(NC(=O)c4ccc(C(=O)Nc5ccccc5N)nc4)ccc23)c1` [[39], Pyridine-2,5-dicarboxylic acid 2-[(2-amino-phenyl)-amide]-5-{[4-(3-ethynyl-phenylamino)-quinazolin-7-yl]-amide}], the IC50 is no less than 0.56 µM in test [7] and 0.002 to 0.74 µM in [10].

As to `O=C(NO)c1ccc(-c2ccc3ncnc(Nc4ccc(OCc5cccc(F)c5)c(Cl)c4)c3c2)o1` [[6], 5-{4-[3-Chloro-4-(3-fluorobenzyloxy)phenylamino]-quinazolin-6-yl}furan-2-carboxylic acid hydroxyamide hydrochloride monohydrate], the half-inhibitory concentration (IC50) in test [11] was 85 µM; in [6] (read-out: Cytotoxicity towards HeLa cervical cell line IC50 (M)), 9.1e-07 to 9.4e-06 M; in test [10], 0.002 to 0.74 µM; in test [8], no less than 0.0353 µM. In addition, in [4], the EC50 was no less than 3.65 µM.
